Data set [1] has as its system ATR. Conditions: in cells, cited from earlier work.
Data set [2] in a line: Pharmacokinetics after i.p. delivery: blood and brain concentration by HPLC/MS. The format is in vivo, CD-1 mice. To be noted: 25 mg/Kg i.p.; for concentration at 1 h / concentration at 2 h / concentration at 6 h / concentration at 8 h: mouse, ip, tumor-free CD-1 mice. Here is the method:
Tumor-free 8-weeks old CD-1 mice (Envigo, http://www.envigo.com) were inoculated i.p. with 25 mg/Kg body weight of NVP-BEZ235 or AZD6738. 1, 2, 6 and 8 h later, blood was collected by retro-orbital bleeding after which the mice were euthanized by CO2 asphyxiation and the brains explanted. Blood and brain samples were then extracted and NVP-BEZ235 and AZD6738 concentrations determined by High Performance Liquid Chromatography (HPLC)/mass spectrometry (MS) as described.
The biodistribution and pharmacokinetics of these ATRi, in particular the concentration reached in the brain after i.p. delivery, is crucial to determine optimal tumor radio-sensitization conditions in vivo. The presence of genuine NVP-BEZ235 and AZD6738 in the mouse blood and brain after i.p. delivery was investigated using HPLC/MS. Figure 1a and 1c show the isotopic patterns of NVP-BEZ235 and AZD6738 respectively, as determined by MS. A logarithmic relationship was found between abundance of NVP-BEZ235 (Fig. 1b) and AZD6738 (Fig. 1d) (expressed in arbitrary units) and their concentrations. For both NVP-BEZ235 and AZD6738, the Limit of Quantitation (LoQ) was 10 × 10^− 9 M. Tumor-free mice were inoculated i.p. with 25 mg/Kg body weight of NVP-BEZ235 (Fig. 1f) or AZD6738 (Fig. 1i). Mouse ID numbers are indicated at the top of Fig. 1f and I for the sake of reference. Blood samples were then withdrawn retro-orbitally after 1, 2, 6 and 8 h (Fig. 1g and k). Immediately after blood sampling, the animals were euthanized and their brains removed (Fig. 1e and h). All samples were homogenized and extracted concomitantly and its ATRi content determined by HPLC/MS. […] This value returned close to the LoQ (12 × 10^− 9 M) 8 h after the i.p. delivery (Fig. 1e).
Fig. 1 Pharmacokinetics of ATRi studied by HPLC/MS in positive polarity. a Isotopic pattern of NVP-BEZ235. b Relationship between HPLC/MS-determined abundance and concentration of NVP-BEZ235. The limit of quantitation (LoQ) was 10 × 10^− 9 M. c Isotopic pattern of AZD6738. d Relationship between HPLC/MS-determined abundance and concentration of AZD6738. The limit of quantitation (LoQ) was 10 × 10^− 9 M. e-g BBB crossing by NVP-BEZ235. Tumor-free mice were inoculated i.p. with 25 mg/Kg body weight of NVP-BEZ235 (f). At the indicated times [T (h)] blood was withdrawn retroorbitally for plasma isolation and analysis (g). Mice were then euthanized and the brains explanted (e). All blood and brain samples were then resuspended in water/methanol, homogenized, centrifuged and the supernatant determined for its NVP-BEZ235 concentration using HPLC/MS as described under Methods and Materials. Concentration values (× 10^− 9 M) are shown at the top of (e) and (g) and illustrated at half-panel by the area of a colored triangle. S.D. of values determined by this procedure is on average ± 31%. Mouse ID numbers are shown at the top of F for the sake of reference. h-k As in E-G but with AZD6738 TEXT PRINTED IN THE PICTURE: (e) NVP-BEZ235: [NVP-BEZ235] x 10^-9 M: 36 (T (h): 1; Brain); [NVP-BEZ235] x 10^-9 M: 111 (T (h): 2; Brain); [NVP-BEZ235] x 10^-9 M: 44 (T (h): 6; Brain); [NVP-BEZ235] x 10^-9 M: 12 (T (h): 8; Brain) | (g) NVP-BEZ235: [NVP-BEZ235] x 10^-9 M: 146 (T (h): 1; Blood); [NVP-BEZ235] x 10^-9 M: 32 (T (h): 2; Blood); [NVP-BEZ235] x 10^-9 M: 28 (T (h): 6; Blood); [NVP-BEZ235] x 10^-9 M: 12 (T (h): 8; Blood) | (h) AZD6738: [AZD6738] x 10^-9 M: 480 (T (h): 1; Brain); [AZD6738] x 10^-9 M: 380 (T (h): 2; Brain); [AZD6738] x 10^-9 M: 80 (T (h): 6; Brain); [AZD6738] x 10^-9 M: 9 (T (h): 8; Brain) | (k) AZD6738: [AZD6738] x 10^-9 M: 760 (T (h): 1; Blood); [AZD6738] x 10^-9 M: 1480 (T (h): 2; Blood); [AZD6738] x 10^-9 M: 140 (T (h): 6; Blood); [AZD6738] x 10^-9 M: 40 (T (h): 8; Blood)

Data set [3] relates to COMI GIC-driven orthotopic GB. To be noted: for Effect on survival of irradiated animals: 25 mg/Kg i.p. + 0.5 Gy IR, three consecutive days, versus vehicle+IR; for Median animal survival: 25 mg/Kg i.p. followed 4 h later by 0.5 Gy IR to the head, at d22, d23 and d24, vehicle (DMSO)+IR 99 days.
Data set [4] has as its system PI3K/mTOR pathway. To be noted: cited from earlier work; for IC50: in cells.
The nature of data set [5]: Brain histopathology (H/E) of tumor-bearing mice treated with ATRi+IR. Conditions: H/E staining at d88.
For data set [6] the following is noted: mouse, in vivo.
Data set [7] is described as follows: Tolerability of NVP-BEZ235 doses above 25 mg/Kg in animals. Type of data set: in vivo. Conditions: our animals, data not shown. From the text:
Gil del Alcazar and coworkers have described radiosensitization of orthotopic GB by NVP-BEZ235 using the established glioma cell line U87 [15]. The U87-driven tumors yet poorly mimic the infiltrative and neovascularization growth properties of clinical GB [17]. Further, the U87 cell line was recently reported to represent a mix-up with another cell line. In order to investigate the radiosensitization properties of NVP-BEZ235 towards orthotopic GB driven by primary GIC that more faithfully mimic the clinical tumors growth, [17] we preliminarily investigated the pharmacokinetics of NVP-BEZ235 using HPLC/MS. […] The early termination of recent NVP-BEZ235 clinical trials due to elevated toxicity may confirm that safety dosing of NVP-BEZ235 should be thoroughly investigated prior to use. […] (Fig. 1e). […] NVP-BEZ235 can diffuse to brain tissues at pharmacologically active levels after systemic administration, albeit the presence of the efflux ABC-transporters (in particular ABCG2) at the BBB may in part restrict its brain penetration. In a preliminary tumor radiosensitization study, we then developed primary adult COMI tumors in NOD SCID mice, whose immunodeficient phenotype is required for reproducible engraftment in virtually 100% of mice (Fig. 2a). […]

In data set [8] the test system is orthotopic xenograft models of GB. Also on record: method as in PMID 27542970. Conditions: nude rats and NOD/SCID mice; cited from earlier work.
Setting [9] is: brain, read-out: Brain concentration.
Where [10] appears, read: plasma, read-out: Blood concentration.

Read-outs that look alike come from different tables or passages of the source.

Consider `C[C@@H]1COCCN1c1cc(C2([S@](C)(=N)=O)CC2)nc(-c2cc[nH]c3nccc2-3)n1` [AZD6738], for which the IC50 in data set [1] (read-out: IC50 for ATR kinase inhibition in cells) was […]. Further, in data set [2] (AZD6738 versus NVP-BEZ235), the “Brain concentrations achievable after i.p. administration relative to NVP-BEZ235” value is reported as […]. Moreover, in data set [2] (setting [9]), the concentration at 1 h worked out at 480 nM, the concentration at 2 h was 380 nM, the concentration at 6 h came to 80 nM and the concentration at 8 h amounted to 9 nM. Moreover, in data set [2] (setting [10]), the concentration at 1 h came to 760 nM, the concentration at 2 h turned out to be 1480 nM, the concentration at 6 h was […] and the concentration at 8 h was […]. For the same molecule, in data set [3], the “Effect on survival of irradiated animals” value was “could not observe any survival improvement” and the Median animal survival was determined as 101 days. Also, the “Inhibition of related kinases in the PI3K/mTOR pathway” value in data set [4] is listed as “does not inhibit significantly”. The “Brain histology variation versus DMSO+IR” value in data set [5] was “No significant histology variations”.

Turning to `Cn1c(=O)n(-c2ccc(C(C)(C)C#N)cc2)c2c3cc(-c4cnc5ccccc5c4)ccc3ncc21` [NVP-BEZ235], the “Brain histology variation versus DMSO+IR” value in data set [6] was “No significant histology variations”. Further, the “Toxicity of doses higher than 25 mg/Kg i.p.” value in data set [7] is reported as “significant toxicity”. The IC50 in data set [1] (read-out: IC50 for ATR inhibition in cells) was 21 nM. Also, in data set [2] (1 h versus 2 h), the “Decrease of blood concentration from 1 h to 2 h” value is greater than 4 fold. Besides, in data set [2] (setting [9]), the concentration at 1 h is 36 nM, the concentration at 2 h stood at 111 nM, the concentration at 6 h was determined as 44 nM and the concentration at 8 h came out at 12 nM. Further, in data set [2] (setting [10]), the concentration at 1 h was 146 nM, the concentration at 2 h is 32 nM, the concentration at 6 h turned out to be 28 nM and the concentration at 8 h stood at 12 nM. Besides, in data set [3], the “Effect on survival of irradiated animals” value is “no elongation of median survival” and the Median animal survival was found to be 86 days. For the same molecule, the IC50 in data set [4] (S473-Akt, read-out: Concentration giving 50% reduction of S473-Akt levels in cells) is 8 nM. For the same molecule, the IC50 in data set [4] (T308-Akt, read-out: Concentration giving 50% reduction of T308-Akt levels in cells) was 30 nM. Also, in data set [8], the “Side effects of doses higher than 25 mg/Kg” value is listed as “severe side effects” and the “Survival benefit or inhibition of tumour growth” value is given as “no survival benefit or inhibition of tumour growth”.

These data come from PMC5914052, “ATR kinase inhibitors NVP-BEZ235 and AZD6738 effectively penetrate the brain after systemic administration” (Radiation Oncology (London, England), 2018).
